{"source": "patent US20150051264A1", "about": "“INHIBITORS OF NOX4 EXPRESSION AND /OR NOX4 FUNCTION AND THEIR USE IN THE PREVENTION AND TREATMENT OF NERVE INJURY AND/OR NEUROPATHIC PAIN” (FRAUNHOFER-GESELLSCHAFT ZUR FOERDERUNG DER ANGEWANDTEN …, priority 2011, published 2015)", "key": {"Nox4-CreERT2 mice": {"test_system": "Nox4-CreERT2 mice", "assay": "Mechanical allodynia (paw withdrawal latency) in the spared nerve injury (SNI) model after tamoxifen induction", "assay_type": "in vivo, mouse", "details": "tamoxifen 1 mg/d i.p. for 3 d starting 10 d after SNI, observed up to 21 d, no effect in the first 7 d or in tamoxifen-treated control mice", "method": "Mechanical paw sensitivity. Paw withdrawal latency after mechanical stimulation was measured with an automated von Frey-type testing device (Dynamic Plantar Aesthesiometer; Ugo Basile) which allows for reliable detection of mechanical sensitivity in mice (Schmidtko et al., 2008). The stainless steel probe of the touch stimulator unit was pushed against the paw with ascending force until a strong and immediate withdrawal occurred. The maximum force was set at 5 g and the ramp speed was 0.5 g/s. The paw withdrawal latency was calculated as the mean of 4-6 measurements with at least 20 s in between.\nNeuropathic pain. The “spared nerve injury” (SNI) model and the “chronic constriction injury” (CCI) model were used to investigate neuropathic pain behavior. Surgery was carried out under isoflurane anaesthesia. For SNI, two branches of the sciatic nerve were ligated and cut distally, leaving the sural nerve intact (Decosterd and Woolf, 2000). […]\n(§1) Global gene ablation may cause developmental compensatory adaptations that might affect phenotypic changes in the genetically manipulated adult animal. […] Ten days after SNI, mice were i.p. injected with tamoxifen (1 mg/d for 3 d) to activate Cre recombinase and knock-down Nox4, and paw withdrawal latency times were measured up to 21 d after the first injection."}, "Nox4 mRNA": {"test_system": "Nox4 mRNA", "assay": "Nox4 mRNA expression by quantitative real-time RT-PCR after tamoxifen induction in Nox4-CreERT2 mice", "assay_type": "in vivo, mouse", "details": "tamoxifen 1 mg/d i.p. for 3 d", "method": "Tamoxifen induction. Tamoxifen (Sigma Aldrich) was prepared by dissolving in ethanol (10 mg per 100 μl) and mixing this solution with 900 μl corn oil for a final concentration of 10 mg/ml. Eight- to ten-week-old Nox4-CreERT2 mice were i.p. injected with 100 μl tamoxifen solution (1 mg, corresponding to about 40 mg/kg tamoxifen) once a day at 10, 11 and 12 d after SNI.\nMice were exsanguinated under deep isoflurane anaesthesia, and tissues were dissected, snap frozen in liquid nitrogen and stored at −80° C. Total RNA from spinal cord, brain and DRGs was extracted under RNase-free conditions using a RNA isolation kit (for spinal cord and brain: RNeasy® Lipid Tissue Mini Kit; Qiagen; for DRGs: RNAqueous Micro Kit; Ambion) according to the manufacturer's instructions, DNase treated for 15 min to minimize genomic DNA contamination and quantified with a NanoDrop® ND-1000 spectrophotometer (NanoDrop® Technologies). cDNA was synthesized using 200 ng RNA, random hexamer primers, RT-Enhancer and the Verso®-enzyme of the Verso® Kit (Thermo Scientific). Real-time RT-PCR was performed with an ABI Prism® 7500 Sequence Detection System (Applied Biosystems) using TaqMan Gene Expression Assays for murine Nox4 (Mm01317086_ml), Nox1 (Mm00549170_m1), Nox2 (Mm01287742_m1), Nox3 (Mm01339132_m1), GAPDH (Mm99999915_μl) and β-actin (Mm00607939_s1), purchased from Applied Biosystems. […] Relative expression of target gene levels was determined using the comparative ΔΔCt method, with Ct indicating the cycle number at which the signal of the PCR product crosses an arbitrary threshold set within the exponential phase of the PCR. […]\nas §1"}}}
{"smiles": "CC/C(=C(\\c1ccccc1)c1ccc(OCCN(C)C)cc1)c1ccccc1", "note": "[tamoxifen, Tamoxifen]", "values": [{"measurement": "Mechanical allodynia (paw withdrawal latency after mechanical stimulation)", "setting": "Nox4-CreERT2 mice", "result": "gradually recovered from mechanical allodynia"}, {"measurement": "Nox4 mRNA in DRGs as compared to vehicle-treated Nox4-CreERT2 mice", "setting": "Nox4 mRNA; Nox4-CreERT2 mice, SNI, 21 d after tamoxifen treatment, P=0.008", "result": 54, "unit": "%"}, {"measurement": "Nox4 mRNA in the spinal cord as compared to vehicle-treated Nox4-CreERT2 mice", "setting": "Nox4 mRNA; Nox4-CreERT2 mice, SNI, 21 d after tamoxifen treatment, P=0.116", "result": 83, "unit": "%"}, {"measurement": "Nox4 mRNA in DRGs, of baseline levels", "setting": "Nox4 mRNA; 21 d after treatment, no significant reduction in the spinal cord", "result": "~50", "unit": "%"}]}
